Test: recombinant UMI read abundance after kanamycin selection (control-corrected) (log10(CPM+1)); higher = more efficient recombination; extreme values may be limits of the assay; sequences stand for … in AGTGCAGAGAAAATCGGCCAGTTTTCTCTGCCTGCAGTCCGCATGCCGTGGGACCCCTTGGGTTCTAACCTGTTGCCTAGATTTATGCAGCGGACTGCCTTTCTCCCAAAGTGATAAACCGG…AGGTTGGTTTCACT; site = the 11-nt donor
In short: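 Sequencing read counts were converted to CPM, averaged over two replicates and scaled by control-derived factors. Results are given as log10(CPM+1). The reads covered the donor–target junction of recombinant UMIs from a pooled Escherichia coli screen of donor and donor-binding-loop pairs for the IS621 bridge recombinase.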
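Further: IS621 bridge recombinase in Escherichia coli cells against a fixed T5 target plasmid.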

## CCTAATGCATGGACCGGTTTTCCCGGTAATCCGTATTTGAT (site CCTAATGCTAT)
  recombinant UMI read abundance (log10): 0

## CCTACGCCATGGACCGGTTTTCCCGGTAATCCGTATTTGAA (site CCTACGCCTTT)
  recombinant UMI read abundance (log10): 0.0231

## CCTACTGCATGGACCGGTTTTCCCGGTAATCCGTATTTGCC (site ACTACTGCTGG)
  recombinant UMI read abundance (log10): 0

## CCTACTGCATGGACCGGTTTTCCCGGTAATCCGTATTTGCC (site CCTACTGCTGG)
  recombinant UMI read abundance (log10): 0.191

## CCTACTGCATGGACCGGTTTTCCCGGTAATCCGTATTTGCC (site GCTACTGCTGG)
  recombinant UMI read abundance (log10): 0

## CCTACTGCATGGACCGGTTTTCCCGGTAATCCGTATTTGCC (site TCTACTGCTGG)
  recombinant UMI read abundance (log10): 0

## CCTCAAGCATGGACCGGTTTTCCCGGTAATCCGTATTTGAT (site CCTAAAGCTAT)
  recombinant UMI read abundance (log10): 0

## CCTCAAGCATGGACCGGTTTTCCCGGTAATCCGTATTTGAT (site CCTCAAGCTAT)
  recombinant UMI read abundance (log10): 0.0413

## CCTCAAGCATGGACCGGTTTTCCCGGTAATCCGTATTTGAT (site CCTGAAGCTAT)
  recombinant UMI read abundance (log10): 0.00432

## CCTCAAGCATGGACCGGTTTTCCCGGTAATCCGTATTTGAT (site CCTTAAGCTAT)
  recombinant UMI read abundance (log10): 0

## CCTCACTCATGGACCGGTTTTCCCGGTAATCCGTATTTGCT (site CCTCACTCTAG)
  recombinant UMI read abundance (log10): 0.747

## CCTCCGGCATGGACCGGTTTTCCCGGTAATCCGTATTTGGT (site CCTCCGGCTAC)
  recombinant UMI read abundance (log10): 0.0132

## CCTCGATCATGGACCGGTTTTCCCGGTAATCCGTATTTGGC (site CCTCGATCTGC)
  recombinant UMI read abundance (log10): 0

## CCTCGGACATGGACCGGTTTTCCCGGTAATCCGTATTTGGT (site CCTCGGACTAC)
  recombinant UMI read abundance (log10): 0.013

## CCTCGTACATGGACCGGTTTTCCCGGTAATCCGTATTTGAG (site CCTCGTACTCT)
  recombinant UMI read abundance (log10): 0.0191

## CCTGCAGCATGGACCGGTTTTCCCGGTAATCCGTATTTGGC (site CCTGCAGCTGC)
  recombinant UMI read abundance (log10): 0

## CCTGGTTCATGGACCGGTTTTCCCGGTAATCCGTATTTGAC (site CCTGGTTCTGT)
  recombinant UMI read abundance (log10): 0

## CCTGTCGCATGGACCGGTTTTCCCGGTAATCCGTATTTGAA (site CCTGTCGCTTT)
  recombinant UMI read abundance (log10): 0.0175

## CCTGTCGCATGGACCGGTTTTCCCGGTAATCCGTATTTGAC (site CCTGTCGCTGT)
  recombinant UMI read abundance (log10): 0

## CCTTAACCATGGACCGGTTTTCCCGGTAATCCGTATTTGCT (site CCTTAACCTAG)
  recombinant UMI read abundance (log10): 0

## CCTTACGCATGGACCGGTTTTCCCGGTAATCCGTATTTGGC (site CCTTACGCTGC)
  recombinant UMI read abundance (log10): 0

## CCTTATACATGGACCGGTTTTCCCGGTAATCCGTATTTGGG (site CCTTATACTCC)
  recombinant UMI read abundance (log10): 0.016

## CCTTATACATGGACCGGTTTTCCCGGTAATCCGTATTTGGT (site CCTTATACTAC)
  recombinant UMI read abundance (log10): 0.00722

## CCTTCTGCATGGACCGGTTTTCCCGGTAATCCGTATTTGGA (site CCTTCTGCTTC)
  recombinant UMI read abundance (log10): 0.00377

## CCTTTCGCATGGACCGGTTTTCCCGGTAATCCGTATTTGAT (site CCTTTCGCTAT)
  recombinant UMI read abundance (log10): 0.0105

## CCTTTCTCATGGACCGGTTTTCCCGGTAATCCGTATTTGGG (site CCATTCTCTCC)
  recombinant UMI read abundance (log10): 0.00388

## CCTTTCTCATGGACCGGTTTTCCCGGTAATCCGTATTTGGG (site CCCTTCTCTCC)
  recombinant UMI read abundance (log10): 0.0264

## CCTTTCTCATGGACCGGTTTTCCCGGTAATCCGTATTTGGG (site CCGTTCTCTCC)
  recombinant UMI read abundance (log10): 0.011

## CCTTTCTCATGGACCGGTTTTCCCGGTAATCCGTATTTGGG (site CCTTTCTCTCC)
  recombinant UMI read abundance (log10): 0

## CCTTTGGCATGGACCGGTTTTCCCGGTAATCCGTATTTGCT (site CATTTGGCTAG)
  recombinant UMI read abundance (log10): 0.00684

## CCTTTGGCATGGACCGGTTTTCCCGGTAATCCGTATTTGCT (site CCTTTGGCTAG)
  recombinant UMI read abundance (log10): 0.00901

## CCTTTGGCATGGACCGGTTTTCCCGGTAATCCGTATTTGCT (site CGTTTGGCTAG)
  recombinant UMI read abundance (log10): 0

## CCTTTGGCATGGACCGGTTTTCCCGGTAATCCGTATTTGCT (site CTTTTGGCTAG)
  recombinant UMI read abundance (log10): 0.00684

## CGAAAACCATGGACCGGTTTTCCCGGTAATCCGTATTTGTT (site CGAAAACCTAA)
  recombinant UMI read abundance (log10): 0

## CGAAAACCATGGACCGGTTTTCCCGGTAATCCGTATTTGTT (site CGGAATCCTAA)
  recombinant UMI read abundance (log10): 0

## CGAACATCATGGACCGGTTTTCCCGGTAATCCGTATTTGAT (site CGAACATCTAT)
  recombinant UMI read abundance (log10): 1.63

## CGAACATCATGGACCGGTTTTCCCGGTAATCCGTATTTGAT (site CGATCATCTAG)
  recombinant UMI read abundance (log10): 0

## CGAAGTGCATGGACCGGTTTTCCCGGTAATCCGTATTTGGG (site CGAAGTGCTCC)
  recombinant UMI read abundance (log10): 0.671

## CGAATGCCATGGACCGGTTTTCCCGGTAATCCGTATTTGAC (site CGAATGCCTGT)
  recombinant UMI read abundance (log10): 0.465

## CGACCATCATGGACCGGTTTTCCCGGTAATCCGTATTTGCT (site CGAACATCTAG)
  recombinant UMI read abundance (log10): 1.13

## CGACCATCATGGACCGGTTTTCCCGGTAATCCGTATTTGCT (site CGACCATCTAG)
  recombinant UMI read abundance (log10): 2.13

## CGACCATCATGGACCGGTTTTCCCGGTAATCCGTATTTGCT (site CGAGCATCTAG)
  recombinant UMI read abundance (log10): 0

## CGACCATCATGGACCGGTTTTCCCGGTAATCCGTATTTGCT (site CGATCATCTAG)
  recombinant UMI read abundance (log10): 0

## CGACGCGCATGGACCGGTTTTCCCGGTAATCCGTATTTGGG (site CGACGCGCTCC)
  recombinant UMI read abundance (log10): 0.672

## CGACTATCATGGACCGGTTTTCCCGGTAATCCGTATTTGTG (site CGACTATCTCA)
  recombinant UMI read abundance (log10): 3.11

## CGACTCTCATGGACCGGTTTTCCCGGTAATCCGTATTTGAC (site CGACTCTCTGT)
  recombinant UMI read abundance (log10): 2.88

## CGAGAACCATGGACCGGTTTTCCCGGTAATCCGTATTTGAT (site CGAGAACCTAT)
  recombinant UMI read abundance (log10): 0

## CGAGAACCATGGACCGGTTTTCCCGGTAATCCGTATTTGAT (site CGCGAACCTAT)
  recombinant UMI read abundance (log10): 0

## CGAGAACCATGGACCGGTTTTCCCGGTAATCCGTATTTGAT (site CGGGAACCTAT)
  recombinant UMI read abundance (log10): 0

## CGAGAACCATGGACCGGTTTTCCCGGTAATCCGTATTTGAT (site CGTGAACCTAT)
  recombinant UMI read abundance (log10): 0

## CGAGCACCATGGACCGGTTTTCCCGGTAATCCGTATTTGCT (site CGAGCACCTAG)
  recombinant UMI read abundance (log10): 0

## CGAGCGACATGGACCGGTTTTCCCGGTAATCCGTATTTGTT (site CGAACGACTAA)
  recombinant UMI read abundance (log10): 0.607

## CGAGCGACATGGACCGGTTTTCCCGGTAATCCGTATTTGTT (site CGACCGACTAA)
  recombinant UMI read abundance (log10): 0.0145

## CGAGCGACATGGACCGGTTTTCCCGGTAATCCGTATTTGTT (site CGAGCGACTAA)
  recombinant UMI read abundance (log10): 1.49

## CGAGCGACATGGACCGGTTTTCCCGGTAATCCGTATTTGTT (site CGATCGACTAA)
  recombinant UMI read abundance (log10): 0.0192

## CGAGCGCCATGGACCGGTTTTCCCGGTAATCCGTATTTGTG (site CAAGCGCCTCA)
  recombinant UMI read abundance (log10): 0.0595

## CGAGCGCCATGGACCGGTTTTCCCGGTAATCCGTATTTGTG (site CCAGCGCCTCA)
  recombinant UMI read abundance (log10): 0.0345

## CGAGCGCCATGGACCGGTTTTCCCGGTAATCCGTATTTGTG (site CGAGCGCCTCA)
  recombinant UMI read abundance (log10): 0.219

## CGAGCGCCATGGACCGGTTTTCCCGGTAATCCGTATTTGTG (site CTAGCGCCTCA)
  recombinant UMI read abundance (log10): 0.0326

## CGAGGAACATGGACCGGTTTTCCCGGTAATCCGTATTTGGG (site CGAGGAACTCC)
  recombinant UMI read abundance (log10): 1.53

## CGAGGAACATGGACCGGTTTTCCCGGTAATCCGTATTTGGG (site CGAGGACCTCC)
  recombinant UMI read abundance (log10): 0.0124

## CGAGGAACATGGACCGGTTTTCCCGGTAATCCGTATTTGGG (site CGAGGAGCTCC)
  recombinant UMI read abundance (log10): 0.376

## CGAGGAACATGGACCGGTTTTCCCGGTAATCCGTATTTGGG (site CGAGGATCTCC)
  recombinant UMI read abundance (log10): 1.59

## CGAGGAACATGGACCGGTTTTCCCGGTAATCCGTATTTGTT (site CGAGGAACTAA)
  recombinant UMI read abundance (log10): 2.78

## CGAGGAACATGGACCGGTTTTCCCGGTAATCCGTATTTGTT (site CGCGGAACTAA)
  recombinant UMI read abundance (log10): 0.0367

## CGAGGAACATGGACCGGTTTTCCCGGTAATCCGTATTTGTT (site CGGGGAACTAA)
  recombinant UMI read abundance (log10): 0.474

## CGAGGAACATGGACCGGTTTTCCCGGTAATCCGTATTTGTT (site CGTGGAACTAA)
  recombinant UMI read abundance (log10): 1.82

## CGAGGACCATGGACCGGTTTTCCCGGTAATCCGTATTTGGG (site AGAGGACCTCC)
  recombinant UMI read abundance (log10): 0.00643

## CGAGGACCATGGACCGGTTTTCCCGGTAATCCGTATTTGGG (site CAAGGACCTCC)
  recombinant UMI read abundance (log10): 0.019

## CGAGGACCATGGACCGGTTTTCCCGGTAATCCGTATTTGGG (site CCAGGACCTCC)
  recombinant UMI read abundance (log10): 0.059

## CGAGGACCATGGACCGGTTTTCCCGGTAATCCGTATTTGGG (site CGAAGACCTCC)
  recombinant UMI read abundance (log10): 0

## CGAGGACCATGGACCGGTTTTCCCGGTAATCCGTATTTGGG (site CGACGACCTCC)
  recombinant UMI read abundance (log10): 0.00414

## CGAGGACCATGGACCGGTTTTCCCGGTAATCCGTATTTGGG (site CGAGAACCTCC)
  recombinant UMI read abundance (log10): 0.0154

## CGAGGACCATGGACCGGTTTTCCCGGTAATCCGTATTTGGG (site CGAGCACCTCC)
  recombinant UMI read abundance (log10): 0

## CGAGGACCATGGACCGGTTTTCCCGGTAATCCGTATTTGGG (site CGAGGAACTCC)
  recombinant UMI read abundance (log10): 0.0189

Reference: the supplement of paper PMC11208160
